Measured values from article PMC9043997, “LEAP2 reduces postprandial glucose excursions and ad libitum food intake in healthy men” (Cell Reports Medicine, 2022).
Where a SMILES comes first, the peptide text is derived from it. Bridges are numbered along the chain shown (N, C = ends).

Columns and labels:
Assay type in all cases: in vivo, human
healthy men [1] = experiment: Indirect calorimetry and renal urea excretion; details: iv LEAP2 ~25 pmol/kg/min
Description: Resting energy expenditure and respiratory quotient were measured by indirect calorimetry (Vyntus CPX Canopy; Vyaire Medical, Höchberg, Germany) for 15 min at timepoints −25 (baseline), 45, 120 and 240 min, with the participants awake and in a supine position from 5 min prior to each test. Participants rested in a hospital bed for 30 min before the first test and throughout the experimental day. The gas and flow analyzers were calibrated before each test. The first 5 min and the last minute of data collection were subsequently discarded, and the mean of a 5-min steady state period defined as a coefficient of variation <10% for VO2 and CO2 was used to estimate resting energy expenditure and respiratory quotient for each test. The 5-min steady state period with the lowest resting energy expenditure and with a respiratory quotient between 0.7 and 1.0 was considered. In a few cases without a 5-min steady state period, a 4-min steady state period was considered.[35]^,[36] In the present study, a steady state period of 5 min was successfully reached in […] out of 160 tests. One participant was excluded from the subsequent data analysis due to no steady state period in any of the four tests during an experimental day. A 4-min steady state period was considered in six cases reaching a total of 23 excluded tests from the data analysis.
To assess the amount of protein breakdown after the liquid mixed meal, urine samples were collected at timepoints 135 and 255 min for measurement of renal urea excretion and total urine production. At timepoint 60 min, 5 min prior to ingestion of the liquid mixed meal, participants were asked to empty their urinary bladder.

healthy men [2] = experiment: Plasma glucose during LEAP2 infusion with liquid mixed meal test, crossover study; details: mean ± SEM
From the text: The infusion was terminated when participants had finished eating.
For analysis of plasma glucose, blood was distributed in fluoride heparin-coated tubes, centrifuged immediately for 30 s (12,100 g, room temperature) and measured bedside by the glucose oxidase method (YSI 2900 Biochemistry Analyzer; YSI Incorporated, Yellow Springs, Ohio, USA). For analysis of LEAP2, blood was collected in chilled K3EDTA tubes each containing 250 KIU of aprotinin. For analysis of acyl ghrelin, blood was collected in chilled K2EDTA tubes added 20 μL pefabloc (100 mg/mL; Merck Millipore, Burlington, Massachusetts, USA). Subsequently, pefabloc-treated plasma was acidified with HCl (12.5 μL 2M HCl per 500 μL plasma; Merck Millipore, Burlington, Massachusetts, USA). For analysis of glucagon, blood was collected in K2EDTA tubes. For analysis of GH, insulin, C-peptide, free fatty acids, glycerol, triglycerides and acetaminophen (paracetamol), blood was collected in tubes with lithium and heparin. All tubes were immediately cooled on ice, centrifuged for 15 min (2,000 g, 4°C) and stored at −80°C until analysis. LEAP2 concentrations were determined by an in-house radioimmunoassay directed against the N-terminal part of LEAP2. LEAP-2 was used for standards, and the tracer was a peptide composed of the 12 N-terminal amino acids of LEAP2, with a ^125I-labelled tyrosine added to the C-terminal end. The precision and accuracy of the assay were evaluated based on European Medicines Agency's guidelines for bioanalytical assay validation. […] Due to supply chain disruptions from the COVID-19 pandemic, acyl ghrelin was only measured in plasma samples at timepoints 0, 60, 105, 165 and 255 min. […] Plasma GH was measured by Immunodiagnostic system-iSYS assay (IS-3700; IDS Limited, Boldon, UK). The assay is based on chemiluminesence technology and was performed according to the manufacturer’|'s instructions. […] For analysis of glucagon, plasma was extracted in a final concentration of 70% ethanol. Glucagon was measured using a C-terminal directed antiserum (code number 4305) measuring glucagon of pancreatic origin as previously described.[40] […] Plasma insulin and C-peptide were measured using a two-sided electrochemiluminescence immunoassay (Atellica IM Analyzer; Siemens Healthcare, Ballerup, Denmark). Plasma triglycerides and acetaminophen were analyzed by spectrophotometric methods following enzymatic hydrolysis and oxidation (Siemens Atellica CH 930; Siemens Healthcare, Ballerup, Denmark). Plasma concentrations of free fatty acids and glycerol were determined by enzymatic methods modified to run on a COBAS 6000 automatic analyzer (Roche, Rødovre, Denmark) using a NEFA-HR assay (Wako Chemicals, Neuss, Germany) and glycerol assay (Randox Laboratories, Crumlin, UK), respectively.
Unless otherwise stated, results are presented as mean ± SEM. Baseline values were calculated as a mean of timepoints −35, −10 and 0 min or, when only available −10 and 0 min. Baseline values for the postprandial period were calculated as a mean of timepoint 60 min. Calculations of AUC were based on the trapezoidal rule. AUC values are reported for the period 0 to 255 min. To assess the fasting and postprandial periods separately, AUC values are reported for the periods 0 to 60 min and 60 to 255 min, respectively. Student’s paired t test was used to test for differences in baseline, peak, time to peak, AUC and mean values and ad libitum food intake in men.

healthy men [3] = experiment: Plasma glucose and VAS ratings during the pharmacokinetic study
Description: Eight healthy men, recruited among participants in the placebo-controlled, crossover study, were included in an additional clinical study investigating the kinetic parameters of exogenous LEAP2. Each participant underwent a single experimental day with intravenous infusion of LEAP2 (10 min at a rate of ∼101 pmol/kg/min followed by 110 min at ∼25 pmol/kg/min) (see Figure S1B for an overview of the clinical study design). […] Fasting schedule for participants and all instructions from 48 h prior to the experimental day were similar to the placebo-controlled, crossover study. […] LEAP2 infusion was started at timepoint 0 min and discontinued after 120 min. Blood samples were drawn every 15 min from timepoint −30 to 270 min and, additionally, at timepoints 118, 122, 124, 127 and 130 min. Plasma glucose was measured bedside every 15 min from timepoint −30 to 180 min and every 30 min from timepoint 180 to 270 min with a mean concentration of 4.85 ± 0.02 mmol/L. For analytical procedures related to plasma glucose and LEAP2 concentrations, please see the section “Human plasma analyses”. Every 30 min from time −30 to 270 min, participants rated appetite-related sensations on 100 mm VAS[34] with a score (median (interquartile range)) for hunger of 72 (59–79) mm, prospective food consumption 73 (65–82) mm, satiety 22 (14–33) mm, fullness 21 (12–31) mm, comfort 78 (72–90) mm, thirst 78 (71–89) mm and nausea 3.0 (0–9.0).

[4] = healthy men n = 20, iv LEAP2 ~25 pmol/kg/min, liquid mixed meal at 65 min
[5] = healthy fasting men n = 8, -30 to 270 min, median (interquartile range)

CC[C@H](C)[C@@H]1NC(=O)[C@@H]2CSSC[C@@H](C(=O)N[C@@H](CO)C(=O)N[C@@H](CC(C)C)C(=O)N[C@@H](CO)C(=O)N[C@H](C(=O)N[C@@H](C)C(=O)N[C@@H](CCC(N)=O)C(=O)N[C@@H](CCC(=O)O)C(=O)O)C(C)C)NC(=O)[C@H](CCCNC(=N)N)NC(=O)[C@H](CCCNC(=N)N)NC(=O)[C@H](CCCCN)NC(=O)[C@H](CCCNC(=N)N)NC(=O)[C@H](CSSC[C@H](NC(=O)[C@H](CO)NC(=O)[C@H](C)NC(=O)CNC(=O)[C@@H](NC(=O)[C@@H]3CCCN3C(=O)[C@H](CCCNC(=N)N)NC(=O)[C@H](CC(C)C)NC(=O)[C@H](CO)NC(=O)[C@@H](NC(=O)CNC(=O)[C@H](CCCNC(=N)N)NC(=O)[C@H](Cc3c[nH]c4ccccc34)NC(=O)[C@H](Cc3ccccc3)NC(=O)[C@@H]3CCCN3C(=O)[C@@H](NC(=O)[C@@H](N)CCSC)[C@@H](C)O)C(C)C)[C@@H](C)CC)C(=O)N[C@@H](CCCNC(=N)N)C(=O)N[C@@H](CC(=O)O)C(=O)N[C@@H](CC(=O)O)C(=O)N[C@@H](CO)C(=O)N[C@@H](CCC(=O)O)C(=O)N2)NC(=O)[C@H](CC(C)C)NC(=O)[C@H](CCCNC(=N)N)NC(=O)[C@H]([C@@H](C)O)NC1=O [LEAP2, liver-expressed antimicrobial peptide 2] (H-MTPFWRGVSLRPIGASCRDDSECITRLCRKRRCSLSVAQE-OH; disulfide 17-28, 23-33 (inferred); N-terminus and C-terminus assumed)
resting energy expenditure, LEAP2 vs placebo (healthy men [1]; indirect calorimetry): no differences
respiratory quotient, LEAP2 vs placebo (healthy men [1]; indirect calorimetry, data not shown): no differences
renal urea excretion, LEAP2 vs placebo (healthy men [1]; two consecutive time points (135 and 255 min) or total, data not shown): no difference
Glucose Baseline (healthy men [2]; healthy men n = 20, LEAP2 day, before infusion (mean of -35, -10, 0 min)): 5.02 ± 0.06 mmol/L
Glucose AUC (healthy men [2]; healthy men n = 20, iv LEAP2 ~25 pmol/kg/min, 0 to 255 min, trapezoidal): 1,288 ± 13.4 mmol/L × min
Glucose Postprandial end (healthy men [2]; healthy men n = 20, iv LEAP2 ~25 pmol/kg/min, after liquid mixed meal): 4.48 ± 0.11 mmol/L
plasma glucose AUC 0–60 min (healthy men [2]; healthy men n = 20, iv LEAP2 ~25 pmol/kg/min, fasting period): 295 ± 3.02 mmol/L/min
Glucose Peak (healthy men [2]; [4]): 6.21 ± 0.12 mmol/L
Glucose Time to peak (healthy men [2]; [4]): 140 ± 12.7 min
Glucose AUC60–255 min (healthy men [2]; healthy men n = 20, iv LEAP2 ~25 pmol/kg/min, postprandial period after liquid mixed meal): 992 ± 12.4 mmol·min/L
Glucose Postprandial baseline (healthy men [2]; healthy men n = 20, iv LEAP2 ~25 pmol/kg/min, time = 60 min): 4.96 ± 0.05 mmol/L
plasma glucose mean concentration during the pharmacokinetic study (healthy men [3]; healthy fasting men n = 8, -30 to 270 min, LEAP2 infusion 0 to 120 min): 4.85 ± 0.02 mmol/L
VAS comfort (healthy men [3]; [5]): 78 (72–90) mm
VAS fullness (healthy men [3]; [5]): 21 (12–31) mm
VAS prospective food consumption (healthy men [3]; [5]): 73 (65–82) mm
VAS satiety (healthy men [3]; [5]): 22 (14–33) mm
VAS thirst (healthy men [3]; [5]): 78 (71–89) mm
VAS hunger (healthy men [3]; healthy fasting men n = 8, every 30 min from -30 to 270 min, LEAP2 infusion 0 to 120 min, median (interquartile range)): 72 (59–79) mm
